According to patent publication US8901308B2, “Triazole compounds that modulate Hsp90 activity” (Synta Pharmaceuticals Corp., priority 2004, dated 2014):
Entries after “also recorded” stand apart in the source; their conditions may differ.

What was measured:
c-kit in HEL92.1.7 cells = experiment: FACS-based c-kit degradation assay in HEL92.1.7 cells; assay type: cell-based; settings: about 18 h
Protocol: (§1) Two leukemia cell lines, HEL92.1.7 and Kasumi-1, were used for testing c-kit degradation induced by Hsp90 inhibitors of the invention. […] The cells were collected and centrifuged (SORVALL RT 6000D) at 1200 rpm for 5 min. The supernatants were discarded, and the cells were washed one time with 1×PBS. After centrifugation the cells were stained with FITC conjugated c-kit antibody (MBL International, Cat# K0105-4) in […] 1×PBS at 4° C. for 1 h. The samples were read and analysized with FACSCalibur flow cytometer (Becton Dicknson).

c-kit in Kasumi-1 cells [1] = experiment: FACS-based c-kit degradation assay in Kasumi-1 cells; assay type: cell-based; settings: about 18 h
Protocol: as §1

c-kit in Kasumi-1 cells [2] = experiment: Western blot analysis of c-Kit in Kasumi-1 cells; assay type: cell-based
Description: The results of the FACS analysis were confirmed with Western blot analysis (see FIG. 5). […] In contrast, 17-AAG had no effect of c-Kit protein levels.

[3] = tested on: RERF-LC-AI^IVP human lung tumor cells; experiment: RERF-LC-AI^IVP nude mouse xenograft model; assay type: in vivo; settings: for Growth rate of RERF-LC-AI^IVP tumors: 5 times per week, 15 doses
Protocol: The human squamous non-small cell lung cancer cell line, RERF-LC-AI (RCB0444; S. Kyoizumi, et al., Cancer. Res. 45:3274-3281, 1985), was obtained from the Riken Cell Bank (Tsukuba, Ibaraki, Japan). […] FBS was obtained from American Type Culture Collection (Manassas, Va., USA) and all other reagents were obtained from Invitrogen Corp. (Carlsbad, Calif., USA). Approximately 4−5×10(6) cells that had been cryopreserved in liquid nitrogen were rapidly thawed at 37° C. and transferred to a 175 cm^2 tissue culture flask containing 50 ml of growth media and then incubated at 37° C. in a 5% CO2 incubator.
The growth media was replaced every 2-3 days until the flask became 90% confluent, typically in 5-7 days. To passage and expand the cell line, a 90% confluent flask was washed with 10 ml of room temperature phosphate buffered saline (PBS) and the cells were disassociated by adding 5 ml 1× trypsin-EDTA (Invitrogen) and incubating at 37° C. until the cells detached from the surface of the flask. To inactivate the trypsin, 5 ml of growth media was added and then the contents of the flask were centrifuged to pellet the cells. The supernatant was aspirated and the cell pellet was resuspended in 10 ml of growth media and the cell number determined using a hemocytometer. Approximately 1-3×10(6) cells per flask were seeded into 175 cm^2 flasks containing 50 ml of growth media and incubated at 37° C. in a 5% CO2 incubator. When the flasks reached 90% confluence, the above passaging process was repeated until sufficient cells had been obtained for implantation into mice.
Seven to eight week old, female Crl:CD-1-nuBR (nude) mice were obtained from Charles River Laboratories (Wilmington, Mass., USA). Animals were housed 4-5/cage in micro-isolators, with a 12 hr/12 hr light/dark cycle, acclimated for at least 1 week prior to use and fed normal laboratory chow ad libitum. Studies were conducted on animals between 8 and 12 weeks of age at implantation. […] Using a 27 gauge needle and 1 cc syringe, 0.1 ml of the cell suspension was injected subcutaneously into the flank of each nude mouse. Tumor volumes (V) were calculated by caliper measurement of the width (W), length (L) and thickness (T) of tumors using the following formula: V=0.5236×(L×W×T).
In vivo passaged RERF-LC-AI tumor cells (RERF-LC-AI^IVP) were isolated to improve the rate of tumor implantation relative to the parental cell line in nude mice. RERF-LC-AI tumors were permitted to develop in vivo until they reached approximately 250 mm^3 in volume, which required approximately 3 weeks following implantation. Mice were euthanized via CO2 asphyxiation and their exteriors sterilized with 70% ethanol in a laminar flow hood. Using sterile technique, tumors were excised and diced in 50 ml PBS using a scalpel blade. […]

[4] = tested on: Her2, an Hsp90 client protein; experiment: Degradation of Her2 in BT-474 cells (Western blot); assay type: cell-based, Human; settings: overnight
Protocol: Human high-Her2 breast carcinoma BT474 (HTB-20), SK-BR-3 (HTB-30) and MCF-7 breast carcinoma (HTB-22) from American Type Culture Collection, VA, USA were grown in Dulbecco's modified Eagle's medium with 4 mM L-glutamine and antibiotics (100 IU/ml penicillin and 100 ug/ml streptomycine; GibcoBRL). To obtain exponential cell growth, cells were trypsinized, counted and seeded at a cell density of 0.5×10^6 cells/ml regularly, every 3 days. All experiments were performed on day 1 after cell passage.
After treatment, each cytoplasmic sample was prepared from 1×10^6 cells by incubation of cell lysis buffer (#9803, cell Signaling Technology) on ice for 10 minutes. The resulting supernatant used as the cytosol fractions were dissolved with sample buffer for SDS-PAGE and run on a SDS-PAGE gel, blotted onto a nitrocellulose membrane by using semi-dry transfer. Non-specific binding to nitrocellulose was blocked with 5% skim milk in TBS with 0.5% Tween at room temperature for 1 hour, then probed with anti-Her2/ErB2 mAb (rabbit IgG, #2242, Cell Signaling) and anti-Tubulin (T9026, Sigma) as housekeeping control protein. HRP-conjugated goat anti-rabbit IgG (H+L) and HRP-conjugated horse anti-mouse IgG (H+L) were used as secondary Ab (#7074, #7076, Cell Signaling) and LumiGLO reagent, 20× Peroxide (#7003, Cell Signaling) was used for visualization.

[5] = tested on: human tumor cell line MDA-MB-435S; experiment: MDA-MB-435S nude mouse xenograft model; assay type: in vivo; settings: 300 mg/kg body weight IP, 5 times per week for 3 weeks
Protocol: FBS was obtained from Sigma-Aldrich Corp. (St. Louis, Mo., USA), and all other reagents were obtained from Invitrogen Corp. (Carlsbad, Calif., USA). Approximately 4−5×10(6) cells that had been cryopreserved in liquid nitrogen were rapidly thawed at 37° C. and transferred to a 175 cm^2 tissue culture flask containing 50 ml of growth media and then incubated at 37° C. in a 5% CO2 incubator. The growth media was replaced every 2-3 days until the flask became 90% confluent, typically in 5-7 days. To passage and expand the cell line, a 90% confluent flask was washed with 10 ml of room temperature phosphate buffered saline (PBS) and the cells were disassociated by adding 5 ml 1× Trypsin-EDTA (Invitrogen) and incubating at 37° C. until the cells detached from the surface of the flask. To inactivate the trypsin, 5 ml of growth media was added and then the contents of the flask were centrifuged to pellet the cells. The supernatant was aspirated and the cell pellet was resuspended in 10 ml of growth media and the cell number determined using a hemocytometer. […]
Six to eight week old, female Crl:CD-1-nuBR (nude) mice were obtained from Charles River Laboratories (Wilmington, Mass., USA). […] Tumor volumes (V) were calculated by caliper measurement of the width (W), length (L) and thickness (T) of tumors using the following formula: V=[…]×(L×W×T). […]

Hsp90 protein = experiment: Malachite Green assay of ATPase activity of Hsp90; assay type: biochemical; settings: 37° C., 4 hours
Protocol: Hsp90 protein was obtained from Stressgen (Cat#SPP-770). Assay buffer: 100 mM Tris-HCl, Ph7.4, 20 mM KCl, 6 mM MgCl2. […] Malachite green reagent was added to the reaction. […] The plate was read by an ELISA reader with an absorbance at 620 nm.

Structure (SMILES)	c-kit degradation (c-kit in HEL92.1.7 cells; 0.5 μM)	c-kit degradation (c-kit in Kasumi-1 cells [1]; 0.5 μM)	Degradation of Her2 ([4]; 0.5 μM)	Degradation of Her2 ([4]; 2 μM)	Degradation of Her2 ([4]; 5 μM)	c-kit degradation (c-kit in HEL92.1.7 cells; 0.05 μM)	c-kit degradation (c-kit in Kasumi-1 cells [1]; 0.05 μM)	further results
C=CCNC1=C2C[C@@H](C)C[C@H](OC)[C@H](O)[C@@H](C)/C=C(\C)[C@H](OC(N)=O)[C@@H](OC)/C=C\C=C(/C)C(=O)NC(=CC1=O)C2=O [Compound 17-AAG, 17-allylamino-17-demethoxygeldanamycin, reference compound]	could not induce c-kit degradation	could not induce c-kit degradation						c-Kit protein levels (Western blot) (c-kit in Kasumi-1 cells [2]; concentration not given): had no effect; Growth rate of RERF-LC-AI^IVP tumors ([3]; 75 mg/kg body weight i.p.): inhibited tumor growth; also recorded: decreased the growth rate; Maximum tolerated dose in nude mice ([3]; i.p., dosed at approximately the maximum tolerated dose): ~75 mg/kg body weight
CCc1cc(-c2nnc(S)n2-c2cccc3ccccc23)c(O)cc1O [Compound 49, 3-(2,4-Dihydroxy-5-ethyl-phenyl)-4-(naphthalen-1-yl)-5-mercapto-[1,2,4] triazole]			partial degradated	complete degradation	complete degradation			Toxicity (effect on body weights) [5]: not associated with significant toxicity; Growth rate of MDA-MB-435S tumors ([5]; compared with 100 mg/kg 17-AAG): decreased the growth rate
Oc1ccc(-c2nnc(S)n2-c2cccc3ccccc23)c(O)c1 [Compound 108, 3-(2,4-Dihydroxy-phenyl)-4-(naphthalen-1-yl)-5-mercapto-[1,2,4] triazole]			partially degradated	partially degradated	almost completely degraded			ATPase activity of Hsp90 (Hsp90 protein; 4 μM): significant inhibition; ATPase activity of Hsp90 (Hsp90 protein; 40 μM): even greater inhibition
CCc1cc(-c2nnc(S)n2-c2ccc(OC)c3c2ccn3C(C)C)c(O)cc1O [Compound 188, 3-(2,4-Dihydroxy-5-ethyl-phenyl)-4-(1-isopropyl-7-methoxy-indol-4-yl)-5-mercapto-[1,2,4] triazole]	induced c-kit degradation	induced c-kit degradation				induced c-kit degradation	induced c-kit degradation	Growth rate of RERF-LC-AI^IVP tumors ([3]; 200 mg/kg body weight i.p.): inhibited tumor growth; also recorded: decreased the growth rate; Maximum tolerated dose in nude mice ([3]; mouse, in vivo, ip): ~200 mg/kg body weight
CC(C)c1cc(-c2nnc(S)n2-c2ccc3c(ccn3C)c2)c(O)cc1O [Compound 221, 3-(2,4-dihydroxy-5-isopropyl-phenyl)-4-(N-methyl-indol-5-yl)-5-mercapto-[1,2,4] triazole]	induced c-kit degradation	induced c-kit degradation				induced c-kit degradation	induced c-kit degradation	c-Kit protein levels (Western blot) (c-kit in Kasumi-1 cells [2]; 100 nM): induced the degradation of c-Kit; c-Kit protein levels (Western blot) (c-kit in Kasumi-1 cells [2]; 400 nM): induced the degradation of c-Kit
